Experimental data published in ChEMBL document CHEMBL1201862, “PubChem BioAssay data set” (2004).
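A five-concentration, 48-hour dose response in 96-well plates underlies each endpoint, interpolated linearly between surrounding concentrations. GI50 = concentration required for 50% inhibition of growth.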 Calls of active or inactive are those of the source. Rule as the data show it: active = GI50 up to about 1.1 µM and inactive = higher.

Tests used:
Assay in all cases: inhibition of tumour cell growth, NCI panel, 48 h
SK-MEL-28 = system: SK-MEL-28
UO-31 = system: UO-31
TK-10 = system: TK-10
HCT-116 = system: HCT-116
KM12 = system: KM12
NCI-H23 = system: NCI-H23
SK-MEL-2 = system: SK-MEL-2
IGROV-1 = system: IGROV-1
NCI-H522 = system: NCI-H522
SK-OV-3 = system: SK-OV-3
K562 = system: K562
HCC 2998 = system: HCC 2998
M19-MEL = system: M19-MEL
786-0 = system: 786-0
HCT-15 = system: HCT-15
RXF 393 = system: RXF 393
LOX IMVI = system: LOX IMVI
CAKI-1 = system: CAKI-1
SN12C = system: SN12C
DLD-1 = system: DLD-1
RXF 631 = system: RXF 631
SNB-75 = system: SNB-75
OVCAR-8 = system: OVCAR-8
M14 = system: M14
DMS-273 = system: DMS-273
SW-620 = system: SW-620
NCI-H460 = system: NCI-H460
DMS-114 = system: DMS-114
SNB-78 = system: SNB-78
U-251 = system: U-251
XF498 = system: XF498
SF-268 = system: SF-268
UACC-257 = system: UACC-257
OVCAR-4 = system: OVCAR-4
CCRF-CEM = system: CCRF-CEM
A498 = system: A498
HT-29 = system: HT-29
MOLT-4 = system: MOLT-4
SF-295 = system: SF-295
RPMI-8226 = system: RPMI-8226
SNB-19 = system: SNB-19
SF-539 = system: SF-539
COLO 205 = system: COLO 205
HL-60 = system: HL-60
SK-MEL-5 = system: SK-MEL-5
Malme-3M = system: Malme-3M
EKVX = system: EKVX
LXFL 529 = system: LXFL 529
UACC-62 = system: UACC-62
HOP-92 = system: HOP-92
A549 = system: A549
HOP-62 = system: HOP-62
OVCAR-3 = system: OVCAR-3
NCI-H226 = system: NCI-H226
SR = system: SR
ACHN = system: ACHN
OVCAR-5 = system: OVCAR-5
KM-20L2 = system: KM-20L2
HOP-18 = system: HOP-18

Measured: GI50

CC(=O)C1C(=O)N(C(C)C)C[C@@H]2CCC(=O)C[C@H]12 (stereo partly drawn)
> 100 µM: HCT-15
inactive: SK-MEL-28 > 100 µM | UO-31 > 100 µM | TK-10 > 100 µM | HCT-116 > 100 µM | KM12 > 100 µM | NCI-H23 > 100 µM | SK-MEL-2 > 100 µM | IGROV-1 > 100 µM | NCI-H522 > 100 µM | SK-OV-3 > 100 µM | K562 > 100 µM | HCC 2998 > 100 µM | M19-MEL > 100 µM | 786-0 > 100 µM | RXF 393 > 100 µM | LOX IMVI > 100 µM | CAKI-1 > 100 µM | SN12C > 100 µM | DLD-1 > 100 µM | RXF 631 > 100 µM | SNB-75 > 100 µM | OVCAR-8 > 100 µM | M14 > 100 µM | DMS-273 > 100 µM | SW-620 > 100 µM | NCI-H460 > 100 µM | DMS-114 > 100 µM | SNB-78 > 100 µM | U-251 > 100 µM | XF498 > 100 µM | SF-268 > 100 µM | UACC-257 > 100 µM | OVCAR-4 > 100 µM | CCRF-CEM > 100 µM | A498 > 100 µM | HT-29 > 100 µM | MOLT-4 > 100 µM | SF-295 > 100 µM | RPMI-8226 > 100 µM | SNB-19 > 100 µM | SF-539 > 100 µM | COLO 205 > 100 µM | HL-60 > 100 µM | SK-MEL-5 > 100 µM | Malme-3M > 100 µM | EKVX > 100 µM | LXFL 529 > 100 µM | UACC-62 > 100 µM | HOP-92 > 100 µM | A549 > 100 µM | HOP-62 > 100 µM | OVCAR-3 > 100 µM

CNC1CC(n2cc(C)c(=O)[nH]c2=O)OC1CO (stereo not drawn)
inactive: SK-MEL-28 > 100 µM | UO-31 > 100 µM | HCT-116 > 100 µM | NCI-H23 > 100 µM | SK-MEL-2 > 100 µM | IGROV-1 > 100 µM | NCI-H522 > 100 µM | SK-OV-3 > 100 µM | K562 > 100 µM | HCC 2998 > 100 µM | NCI-H226 > 100 µM | M19-MEL > 100 µM | 786-0 > 100 µM | CAKI-1 > 100 µM | SN12C > 100 µM | DLD-1 > 100 µM | RXF 631 > 100 µM | SNB-75 > 100 µM | M14 > 100 µM | DMS-273 > 100 µM | SR > 100 µM | DMS-114 > 100 µM | XF498 > 100 µM | SF-268 > 100 µM | OVCAR-4 > 100 µM | CCRF-CEM > 100 µM | A498 > 100 µM | MOLT-4 > 100 µM | RPMI-8226 > 100 µM | ACHN > 100 µM | SF-539 > 100 µM | COLO 205 > 100 µM | HL-60 > 100 µM | Malme-3M > 100 µM | LXFL 529 > 100 µM | UACC-62 > 100 µM | HOP-92 > 100 µM | HOP-62 > 100 µM

COC(=O)C#CC(N)=O
> 100 µM: HCT-15
inactive: OVCAR-5 > 100 µM | SK-MEL-28 17.9 µM | UO-31 > 100 µM | TK-10 > 55.6 µM | HCT-116 98.2 µM | KM-20L2 > 31.6 µM | KM12 > 100 µM | NCI-H23 > 100 µM | SK-MEL-2 > 91.2 µM | IGROV-1 > 100 µM | NCI-H522 > 63.1 µM | SK-OV-3 > 100 µM | K562 21.8 µM | HCC 2998 > 100 µM | NCI-H226 > 100 µM | M19-MEL > 64.3 µM | 786-0 > 59.3 µM | RXF 393 31.4 µM | LOX IMVI > 35.8 µM | CAKI-1 28.1 µM | SN12C > 100 µM | DLD-1 > 100 µM | RXF 631 > 100 µM | SNB-75 35.1 µM | OVCAR-8 30.7 µM | M14 19.5 µM | DMS-273 > 100 µM | SR 24.2 µM | SW-620 23.8 µM | NCI-H460 > 100 µM | DMS-114 > 100 µM | SNB-78 > 100 µM | U-251 > 100 µM | SF-268 > 100 µM | UACC-257 27.7 µM | OVCAR-4 > 100 µM | HOP-18 53.5 µM | CCRF-CEM 13.9 µM | A498 > 100 µM | HT-29 > 100 µM | MOLT-4 22.3 µM | SF-295 > 100 µM | SNB-19 > 100 µM | ACHN > 100 µM | SF-539 > 100 µM | COLO 205 > 100 µM | HL-60 4.94 µM | SK-MEL-5 > 100 µM | Malme-3M 13.4 µM | EKVX > 100 µM | LXFL 529 > 100 µM | UACC-62 > 64.7 µM | HOP-92 20.6 µM | A549 > 100 µM | HOP-62 > 100 µM | OVCAR-3 > 100 µM
